In the assay the target is Cathepsin D (Homo sapiens, UniProt P07339). The assay is described as follows: Fluorescence Resonance Energy Transfer Assay: Recombinant Cat D was expressed in CHO cells. The assay buffer for CathepsinD is 0.05 M citrate pH 3.5, 10% DMSO final, 5 mM CHAPS. The Cat D enzyme (9 nM) is pre-incubated for one hour with inhibitors, typically in about 1 uL of DMSO according to a serial dilution, is added thereto. The assays are effectively started by the addition of different FRET substrates (20 nM for Cat D) and the combination is incubated for one hour. The FRET assay is terminated with by addition of Tris buffer, which raises the pH to neutrality, and the fluorescence is determined. The FRET substrate is a peptide with commercially available fluorophore and quencher, on opposite sides of the BACE cleavage site. The Cat D substrate peptide sequence is based on sequence #1 of Table 1 from Gulnik et al. FEBS Letters v413 p379-384 1997. Proteolytic cleavage of the FRET substrate releases quenching of fluorescence (Cat D excitation 500 nm and emission 580 nm). The format is cell-based.
Cathepsin D, sequence (P07339 65-162 limits assumed): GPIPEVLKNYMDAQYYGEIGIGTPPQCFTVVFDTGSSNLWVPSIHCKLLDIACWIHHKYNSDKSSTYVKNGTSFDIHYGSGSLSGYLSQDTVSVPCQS
Cathepsin D, sequence (P07339 169-412 limits assumed): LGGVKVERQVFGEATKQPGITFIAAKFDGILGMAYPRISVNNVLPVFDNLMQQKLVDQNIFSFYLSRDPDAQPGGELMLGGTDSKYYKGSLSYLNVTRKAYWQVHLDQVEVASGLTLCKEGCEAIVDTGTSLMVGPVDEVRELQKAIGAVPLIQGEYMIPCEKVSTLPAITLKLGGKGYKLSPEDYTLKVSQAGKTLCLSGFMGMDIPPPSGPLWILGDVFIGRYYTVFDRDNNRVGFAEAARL
Usually IC50 stands for the concentration at which inhibition is half-maximal. Turning to `NC1=N[C@](CF)(c2cc(NC(=O)c3ccc(Cl)cn3)cc(F)c2F)[C@H]2C[C@H]2O1`, the IC50 was found to be 229 µM.

Take `NC1=N[C@@](c2cc(NC(=O)c3ncc(Br)cn3)ccc2F)(C(F)F)[C@H]2C[C@H]2O1`: the IC50 was 1020 µM.

As to `NC1=N[C@](CF)(c2cc(NC(=O)c3ncc(Cl)cc3CO)ccc2Cl)[C@H]2C[C@H]2O1`, the IC50 worked out at 533 µM.

`Cc1cc(NC(=O)c2ccc(Cl)cc2CF)cc([C@@]2(C(F)F)N=C(N)O[C@@H]3C[C@@H]32)c1F`: the IC50 was found to be 171 µM.

The values are drawn from ChEMBL document CHEMBL3639225, “Perfluorinated cyclopropyl fused 1,3-oxazin-2-amine compounds as beta-secretase inhibitors and methods of use” (2015).
